Results reported in patent publication US20210386761A1, “COMPOSITION FOR PREVENTING OR TREATING INFLAMMATORY BOWEL DISEASE, CONTAINING, AS ACTIVE INGREDIENT, TAURODEOXYCHOLIC ACID OR PHARMACEUTICALLY ACCEPTABLE SALT THEREOF” (SHAPERON INC., priority 2019, published 2021).

Tests used:
[1] = tested on: inflammatory bowel disease-induced mouse model (DSS); assay: Clinical symptom analysis (body weight, DAI, survival) in 2% DSS inflammatory bowel disease-induced mouse model; format: in vivo
Experimental: An inflammatory bowel disease-induced mouse model using dextran sodium sulfate (DSS) was prepared by the following method.
Specifically, male C57BL/6 mice (7 to 12 weeks old, body weight of 18 to 30 g) were adapted for one week and used in the experiment. Animal rearing was carried out under the conditions of a temperature of 25° C. and a day and night cycle (12 hours night/12 hours daytime), and feed and drinking water were freely fed. All the animals were managed according to the guidelines for use of experimental animals of Seoul National University IACUC (IACUC: SNU-151223-4-1). On the day of administration of DSS (MP Biomedicals, Santa Ana, Calif., USA) (Day 0), mice were weighed and marked on the tail.
Next, male C57BL/6 mice were fed with a 2% DSS solution together with drinking water from Day 0 of the experiment to induce inflammatory bowel disease. DPBS or 10, 5, 2.5, or 1 mg/kg sodium taurodeoxycholic acid (TDCA) was administered in 0.1 ml by oral gavage one time a day from Day 1 of the experiment. Alternatively, 0.1 ml of 5 mg/kg TDCA was administered one time a day by oral gavage 2 days before DSS administration.
The 2% DSS solution was used after being prepared by dissolving DSS powder in sterilized distilled water and filtering the solution. The TDCA was dissolved in DPBS (Dulbecco's phosphate-buffered saline) and used.
The disease activity indexes (DAI) including body weight, body weight loss, stool consistency, and bloody stool were measured daily. DAI was scored according to the following [Table 1].
(§1) Specifically, female C57BL/6 mice were fed with a 2% DSS solution or DPBS together with drinking water for 10 days from Day 0 of the experiment by the same method as that described in <Example 1>, DPBS or 5 mg/kg TDCA was administered to the mice by oral gavage one time a day for 11 days from Day 1 of the experiment, and the body weight and DAI were measured daily. As a control, mice freely fed with drinking water were used.
as §1, with “or 10, 5, 2.5, or 1” for “or 5”
as §1, with “solution” for “solution or DPBS”, “7” for “10”, “gavage” for “gavage one time a day for 11 days”, “DSS administration or 2 days before DSS administration,” for “the experiment,”
as §1, with “Specifically, C57BL/6-Gpbar1^tm1(KOMP)Vlcg mice (TGR5 KO, KOMP Repository, The Knockout Mouse Project, University of California, Davis, Calif.) were used as TGR5 knockout (TGR5^−/−) female C57BL/6 mice. The TGR5^−/− female C57BL/6 mice or TGR5 normal (WT)” for “Specifically,”, “1>.” for “1>,”

IL-6 = assay: Pro-inflammatory cytokine ELISA of colon tissue, IL-6; format: in vivo, mouse; conditions: for IL-6 in the colon tissue: Day 7
Experimental: In order to evaluate the clinical symptoms-improving efficacy in comparison with those by clinical prescription drugs, inflammatory bowel disease was induced by 7-day or repeated administration of 3% or 2.5% DSS solution, and tofacitinib 10 mg/kg, 5-ASA 100 mg/kg or 200 mg/kg, prednisolone 1 mg/kg, and TDCA 2.5 mg/kg were administered one time a day from the start date of DSS administration. From the start date of DSS administration, TDCA 2.5 mg/kg was administered one time a day (QD), two times a day (BID), and three times a day (TID).
A colon was obtained from a mouse which had been subjected to an experiment by the same method as that described in <Example 2>, the peripheral colon was cut into 2 cm in length and the weight was recorded. Next, the colon was chopped into 1 mm pieces and frozen on ice, treated with 500 μl of cold DPBS containing protease inhibitor (Roche, 11836170001, Basel, Switzerland), and homogenized for 10 to 20 seconds using an electric homogenizer (IKA T10 Basic, Wilmington, SE, USA). The homogenate was centrifuged at 4° C. for 10 minutes at 12,000×g to obtain a supernatant. ELISA analysis was performed using the obtained supernatant, IL-6 DuoSet ELISA kit (R & D systems, USA), IL-1β DuoSet ELISA kit (R & D systems, USA), and TNF-α DuoSet ELISA kit (R & D systems, USA) according to the manufacturer's procedure to confirm the production of pro-inflammatory cytokines.
as §1, with “solution” for “solution or DPBS”, “7” for “10”, “6” for “11”, “used. Next, the mice were sacrificed on Day 7 of the experiment by the same method as that described in <Example 3>, and inflammatory cell and proinflammatory cytokine analysis was performed.” for “used.”
Specifically, female C57BL/6 mice were fed with a 2% DSS solution together with drinking water for 7 days from Day 0 of the experiment by the same method as that described in <Example 1>, DPBS or 5 mg/kg TDCA was administered to the mice by oral gavage from Day 1 of DSS administration or 2 days before DSS administration, and the body weight and DAI were measured daily. As a control, mice freely fed with drinking water were used. Next, the mice were sacrificed on Day 7 of the experiment by the same method as that described in <Example 3>, and the inflammatory cell and proinflammatory cytokine analysis was performed.

SMILES: C[C@H](CCC(=O)NCCS(=O)(=O)O)[C@H]1CC[C@H]2[C@@H]3CC[C@@H]4C[C@H](O)CC[C@]4(C)[C@H]3C[C@H](O)[C@]12C [TDCA, sodium taurodeoxycholic acid]
- initial body weight lost on Day 10 ([1]; 2% DSS 10 days, 5 mg/kg TDCA oral gavage one time a day for 11 days from Day 1, DSS+DPBS group about 15%, FIG. 1A): about 5%
- survival rate ([1]; 2% DSS 10 days, 5 mg/kg TDCA oral gavage one time a day, DSS+DPBS group 60%, FIG. 1C): 100%
- start of body weight loss later than the DSS+DPBS group ([1]; 2% DSS 10 days, 5 mg/kg TDCA oral gavage one time a day, FIG. 1A): about 2 days
- DAI (disease activity index) change ([1]; 2% DSS 10 days, 5 mg/kg TDCA oral gavage one time a day, FIG. 1B): lower than that in the DSS+DPBS group
- DAI change ([1]; 2% DSS 10 days, 10, 5, 2.5, or 1 mg/kg TDCA, FIG. 4B): lower than that in the DSS+DPBS group
- degree of alleviation of body weight loss ([1]; 2% DSS 10 days, TDCA at 5 and 10 mg/kg, among 10, 5, 2.5, 1 mg/kg, FIG. 4A): superior
- DAI change ([1]; 2% DSS 10 days, TDCA at 10, 5, and 2.5 mg/kg, among 10, 5, 2.5, 1 mg/kg, FIG. 4B): DAI was lower
- DAI change ([1]; DSS+TDCA group: 5 mg/kg TDCA from Day 1 of DSS administration, 2% DSS 7 days, FIG. 6B): similarly decreased
- DAI change ([1]; DSS+preTDCA group: 5 mg/kg TDCA from 2 days before DSS administration, 2% DSS 7 days, FIG. 6B): similarly decreased
- initial body weight lost on Day 10 ([1]; TGR5 normal (WT) mice, 2% DSS 10 days, 5 mg/kg TDCA oral gavage one time a day, FIG. 8A): about 5%
- DAI change ([1]; TGR5 normal (WT) mice, 2% DSS 10 days, 5 mg/kg TDCA, FIG. 8B): lower than those in the other groups
- survival rate ([1]; TGR5 normal (WT) mice, 2% DSS 10 days, 5 mg/kg TDCA, FIG. 8C): 100%
- IL-6 in the colon tissue (IL-6; 2% DSS 7 days, 5 mg/kg TDCA oral gavage, FIG. 3B): decreased
- concentration of IL-6 in the colon tissue, compared with clinical prescription drugs (IL-6; 3% DSS 7 days, TDCA 2.5 mg/kg vs tofacitinib 10 mg/kg and 5-ASA 100 mg/kg): equivalent to those by tofacitinib 10 mg/kg and 5-ASA 100 mg/kg
- IL-6 in the colon tissue (IL-6; DSS+TDCA group: 5 mg/kg TDCA from Day 1 of DSS, FIG. 7B): decreased
- IL-6 in the colon tissue (IL-6; DSS+preTDCA group: 5 mg/kg TDCA from 2 days before DSS, FIG. 7B): decreased
